Entries after “also recorded” stand apart in the source; their conditions may differ.

The test system of one data set is pHOT plasmid DNA. As to the kind of experiment: DNA intercalating assay. The following applies: 0, 5, 10, 25 and 50 μM, compared with m-AMSA. The protocol: (§1) DNA samples were separated by electrophoresis on 0.8% agarose gels and visualized by ethium bromide staining. The positions of K-DNA and decatenated (D) DNA products are marked by arrows. Experiments were repeated five times and the densitometry of the D bands were used to establish an inhibition curve to calculate IC50. (b) Supercoiled pHOT™ plasmid was incubated with human TOP2a in the presence of 50 μM Etopside, 50 uM ICRF193 or 0-50 μM of compound #60 (Top60) compound at 37° C. for 1 hour. DNA products were separated by electrophoresis on 1% agarose gels and visualized by ethium bromide staining. The positions of supercoiled (SC), nicked (N), and relaxed (R) DNA bands are marked by arrows. Experiments were repeated five times and the densitometiy of the SC bands were used to establish an inhibition curve to calculate IC50. (c) Supercoiled pHOT™ plasmid was incubated with Topoisomerase I prior to addition of either mAMSA or compound #60 (Top60) at concentrations of 0, 5, 10, 25 and 50 μM at 37° C. for 30 minutes. […]
Top60 is a catalytic inhibitor of Topo II To verify that our lead Compound 60(Top60), the formation of ds DNA breaks was assayed both in and outside of cells. […] Furthermore, H2AXγ protein expression was assessed by Western blot to determine if the lead compound could cause DNA damage in cells, and compared to Etoposide as a control (FIG. 3b). […]

Data set [1] has as its system Etoposide-resistant K562 cell line. As to the kind of experiment: MTS cell proliferation assay in Etoposide-resistant cells. Particulars: 0-20 μM, 48 hours; cells with downregulated Topo II. The data set is classed as cell-based. The protocol:
(§2) Whole cell lyses were collected and used to measure protein levels of TOP2α, TOP2β with β-Actin as a loading control; (b) K562 cells were treated with 0, 1, and 10 μM of Top60 for 24 hours. Protein lyses were collected from soluble nuclear extract, chromatin fraction or whole cell lysate. TOP2α and TOP2β protein levels were determined by immunoblotting with Lamin A/C, Histone H3 and β-Actin as loading controls; and (c) Etoposide-resistant K562 cell line was established by treating cells with 0.5 μM of Etoposide for 6 months. TOP2α, TOP2β, and β-actin protein levels were determined by immunoblotting. Etoposide-resistant K562 cells were treated with 0, 1, 10, 15 and 20 μM of Top60, Etoposide or ICRF187 for 48 hours. Cell proliferation rates were determined by MTS assays.
In order to asses binding of the lead compound to Topo II, a thermal shift assay was performed. […] It was observed that Topo IIα was stabilized up to 43° C. in the presence of the lead compound (FIG. 4A). Furthermore, cellular fractionation was performed to assess localized changes in Topo II in response to compound treatment. As Topo IIα is important for decatenating DNA during cellular replication, it is expected to be chromatin bound. […] To further verily that Topo II is the only observable target of Top60, Etoposide resistant cell lines were bred. […]

In a further data set the target is T1, human TOP2a (Homo sapiens, UniProt P11388).
T1 construct: purchased TopoGENE (TopoGEN) TG1001 (assay kit)
T1 sequence (P11388 whole entry): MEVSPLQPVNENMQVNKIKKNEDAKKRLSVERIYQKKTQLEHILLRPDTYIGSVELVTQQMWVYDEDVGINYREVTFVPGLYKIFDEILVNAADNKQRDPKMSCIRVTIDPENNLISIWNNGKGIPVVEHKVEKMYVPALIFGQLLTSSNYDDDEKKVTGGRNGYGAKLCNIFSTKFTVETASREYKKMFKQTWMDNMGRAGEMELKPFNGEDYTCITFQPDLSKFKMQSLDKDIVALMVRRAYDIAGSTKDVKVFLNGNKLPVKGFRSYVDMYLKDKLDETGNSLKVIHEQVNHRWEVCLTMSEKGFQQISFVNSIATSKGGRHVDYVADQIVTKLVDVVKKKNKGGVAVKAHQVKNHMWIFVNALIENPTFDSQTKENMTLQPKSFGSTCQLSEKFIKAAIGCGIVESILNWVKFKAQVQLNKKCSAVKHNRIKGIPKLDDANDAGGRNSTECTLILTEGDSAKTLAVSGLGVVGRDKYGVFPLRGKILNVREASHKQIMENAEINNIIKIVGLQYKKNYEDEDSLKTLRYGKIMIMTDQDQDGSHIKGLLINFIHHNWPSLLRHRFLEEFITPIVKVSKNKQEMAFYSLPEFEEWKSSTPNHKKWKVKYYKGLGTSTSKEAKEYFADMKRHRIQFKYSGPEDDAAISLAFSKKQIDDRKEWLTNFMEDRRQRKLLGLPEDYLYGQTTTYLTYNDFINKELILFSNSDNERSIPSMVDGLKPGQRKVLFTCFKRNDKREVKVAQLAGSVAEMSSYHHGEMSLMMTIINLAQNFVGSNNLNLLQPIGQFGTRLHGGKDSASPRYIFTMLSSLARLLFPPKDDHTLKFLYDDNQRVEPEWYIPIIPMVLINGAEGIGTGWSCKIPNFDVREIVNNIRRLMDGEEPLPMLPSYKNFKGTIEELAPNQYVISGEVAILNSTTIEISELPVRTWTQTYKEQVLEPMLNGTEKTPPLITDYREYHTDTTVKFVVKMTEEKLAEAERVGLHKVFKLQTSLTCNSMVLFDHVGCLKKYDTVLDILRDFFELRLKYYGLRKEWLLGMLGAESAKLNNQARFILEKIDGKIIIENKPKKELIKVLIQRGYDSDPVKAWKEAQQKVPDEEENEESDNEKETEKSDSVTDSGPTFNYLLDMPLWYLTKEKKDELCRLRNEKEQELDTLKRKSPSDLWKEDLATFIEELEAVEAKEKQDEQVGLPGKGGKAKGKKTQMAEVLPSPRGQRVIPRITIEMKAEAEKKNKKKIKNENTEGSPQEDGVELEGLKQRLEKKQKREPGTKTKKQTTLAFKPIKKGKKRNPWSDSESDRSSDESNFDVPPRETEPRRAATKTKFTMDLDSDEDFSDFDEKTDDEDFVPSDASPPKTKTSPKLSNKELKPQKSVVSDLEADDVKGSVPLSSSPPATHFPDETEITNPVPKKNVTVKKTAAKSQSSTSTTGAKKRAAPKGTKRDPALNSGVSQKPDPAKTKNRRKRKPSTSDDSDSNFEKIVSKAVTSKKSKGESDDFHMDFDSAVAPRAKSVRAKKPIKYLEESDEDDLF
As to the kind of experiment: K-DNA decatenation assay. Type of data set: biochemical. Particulars: 0-50 μM, 37° C., 1 hour. As to the method:
as §1, with “minutes. Reactions were stopped by 1% SDS at 37° C. for 15 minutes. DNA products were separated by electrophoresis on a 1% agarose gels and visualized by ethium bromide staining.” for “minutes.”

The target in the next data set is Topo IIα (Homo sapiens, UniProt P11388). As to the kind of experiment: Thermal shift assay in cells. Type of data set: binding. On the set-up: endogenous in cells; host or cells: K562. Particulars: K562 cells, 20 μM. As to the method: as §2
Sequence of Topo IIα (P11388 whole entry): as above
Thermal shift and chromatin fraction assays—In the thermal shift assays, cells were treated with vehicle or compound #60 (Top60) for 1 hour, split into equal aliquots to be heated at 37 to 46 degrees in a PCR machine. Protein lyses were collected to perform immunoblotting assays with Topo II antibodies. In the chromatin fraction assays, cells were treated with vehicle or compound #60 (Top60). Both soluble and chromatin associated proteins were fractioned following the protocol described by Wysocka J et al.^18. Protein lyses were collected to perform immunoblotting assays with Topo II antibodies. […]

The next data set deals with Hela cells. As to the kind of experiment: LDH cytotoxicity assay. Type of data set: cell-based. The following applies: 0-20 μM, 48 hours, listed as Top60. As to the method: Cytotoxicity was evaluated by measuring LDH levels from cell culture media; (b) K562 cells were treated with either vehicle or 10-20 μM of Top60, Etoposide and ICRF187 for 4 hours. Whole cell lyses were collected to measure γH2AX levels with vinculin as the loading control; (c) K562 cells were treated with 0, 1, 5, 10, 15 and 20 μM of Top60, 20 μM Etoposide or 20 uM ICRF187 for 48 hours. Cell proliferation rates were determined by MTS assays; and (d) K562 cells were treated with 20 μM of Top60, Etoposide or ICRF187 for 0, 24, 48 and 72 hours. Cell proliferation rates were measured by MTS assays. All results were collected from three independent experiments.
Cytotoxicity assay—Cytotoxicity assays were performed using the commercial kit from Pierce (CAT #8078). Briefly, culture media was collected and used to measure lactate dehydrogenase (LDH) levels by a colorimetric method following manufacture's protocol.

Turning to `O=C(Nc1ccc(Nc2ccccc2)cc1)c1ccc[nH]c1=S` [Compound 60], the DNA intercalation result in the data set with pHOT plasmid DNA is listed as “not an intercalator”. The “inhibitory effects on Etoposide resistant cells” value in data set [1] is recorded as “dramatically reduced”. Also, the “IC50 in the decatenation assay” value against human TOP2a is “nanomolar”. For the same molecule, at Topo IIα, the “temperature up to which Topo IIα was stabilized” value was “up to 43 °C”. Besides, the “cytotoxicity (LDH levels in culture media)” value with Hela cells was “Low cytotoxic affect; also recorded: low cytotoxicity”.

Source of the values: patent US20210379077A1, “TOPOISOMERASE II CATALYTIC INHIBITOR COMPOUND THERAPEUTICS FOR CANCER TREATMENT, METHODS AND USES” (The University of British Columbia, priority 2018, published 2021).
